Data reported in patent publication US20260216166A1, “COMPOUND FOR TREATMENT OF ERECTILE DYSFUNCTION” (Initiator Pharma A/S, priority 2023, published 2026).

Tests used:
[1] = system: male patients with ED; experiment: RigiScan assessment during visual stimulus challenge in male patients with ED; assay type: in vivo, human; design: individual RAU value at the base / individual TAU value at the tip / individual RAU value at the tip / individual TAU value at the base: unit not given here
From the text: The RigiScan Plus Monitor consists of two loops, one to be placed around the base of the penis and the other towards the tip. The ambulatory monitor uses tip and base penile loops that adjust by tightening slightly at discrete time intervals to measure and record penile rigidity and tumescence. Each loop contains a cable that moves freely inside a conduit. Each loop takes a measurement every 15 seconds. The loop gently tightens with a linear force of 4 ounces (114 g) and then immediately releases and the tissue rebounds to its unloaded state. The RigiScan Plus Monitor then takes a tumescence measurement. After the tumescence measurement is taken, it is compared to the previous samples. When a 6 mm increase in tumescence is detected, representing possible erectile activity, the RigiScan Plus Monitor takes a second measurement every 30 seconds. After tumescence is measured, the loops tighten a second time around the circumference of the penis with a linear force of 10 ounces (283.5 g). The RigiScan Plus Monitor takes a measurement when this force is applied to record a cross sectional response to radial compression. This is how rigidity is measured^1. Data were recorded on a monitor strapped to the thigh of the subjects/participants and downloaded onto a computer after the recording session. Subjects/participants were instructed on how to self-apply the RigiScan Plus Monitor by the Investigator and were advised to wear loose fitting clothing during the residential stay at the unit.
The study was an exploratory Phase II, randomised, placebo-controlled, double-blind, crossover study, investigating the effects of a single oral dose of IP2015 on erectile function in males with ED. A dose level of 10 mg was selected. Patients were enrolled into two cohorts. Both cohorts participated in two periods (Period 1 and Period 2) and received a single dose of IP2015 and a single dose of placebo.
Patients were assessed for efficacy using the RigiScan Plus Monitor during the stimulus challenge at predose and 1, 4 and 8-hour postdose on Day 1 of each treatment period.
The design of the stimulus challenge is outlined in FIG. 3. Predose and 1, 4 and 8-hour postdose, the patients were asked to watch a 20-minute digital clip in a private room. The digital clip consisted of a 10-minute neutral digital clip followed by a 10-minute digital clip consisting of heterosexual pornography. The study staff started the digital clip and then left the room, during which there was a 1-minute delay before the neutral digital clip commenced. The neutral and pornographic digital clip were different at each assessment. RigiScan assessments were recorded through the assessment period. The RigiScan Plus Monitor was applied for approximately 20 minutes on each occasion. The patient was semi-recumbent during the assessment.
The RigiScan measurement parameters were treated as efficacy outcomes and calculated in a similar fashion as in Example 2.
Effects of IP2015 on PD parameters were analysed with a generalised mixed regression model using a PD parameter as responsible variable, treatment (active and placebo), timepoint, period (1 and 2), sequence (active-placebo, placebo-active), interaction between treatment and timepoint as mixed effects, baseline measurements as a covariate, and patient as a random effect. This model was applied to each PD parameter. The treatment difference between active and placebo at different timepoints together with 95% CIs was derived from the generalized mixed regression model. For a continuous outcome, treatment difference was measured as the difference in LS mean; for a binary outcome, treatment difference was measured as the odds ratio. In case of model non-convergence due to small sample size at some timepoints, those timepoints could be pooled with neighbouring timepoints.

[2] = system: sperm count and motility; experiment: Semen analysis after repeat single oral doses in male subjects with ED; assay type: in vivo, human; details: 5 mg or 10 mg, four weekly doses; Day -7 versus Week 4
Method: On Day-7, and at the Week 1 (Day 1), Week 2, Week 3, Week 4 and Follow-up visits, all groups were asked to complete the IIEF-15 questionnaire. Group 2 was asked to complete a Visual Stimulation Assessment using a RigiScan Plus Monitor on Day-7, Week 1 (Day 1) and Week 4. Group 2 was also required to provide blood samples for pharmacokinetic assessment on Week 1 (Day 1) and Week 4. Group 3 was required to provide semen samples on Day-7 and Week 4.
Efficacy was assessed through the International Index of Erectile Function (IIEF)-15 questionnaire. The change from baseline in responses to questions of the IIEF-15 questionnaire, including questions regarding erectile function, orgasmic function, sexual desire, intercourse satisfaction and overall satisfaction domain scores, was determined at different time points of the study. RigiScan assessments during the stimulus assessment, and sperm count and motility by semen sample collection was used for efficacy evaluation. Safety was assessed through AE reporting, 12-lead ECG, vital signs, physical examinations and clinical laboratory evaluations. Pharmacokinetics was assessed by blood sampling.

[3] = 10 mg, 4 hours postdose, N = 12
[4] = 10 mg, 4 hours postdose, statistically significant

Structure (SMILES): COc1cc2ccc(OC3CC4CCC(C3)N4)cc2oc1=O (stereo not shown) [IP2015, 7-[(8-azabicyclo[3.2.1]octan-3-yl)oxy]-3-methoxy-chromen-2-one]
- baseline circumference at the tip, LS mean difference compared to placebo ([1]; 10 mg, 1 hour postdose, 95% CI: 0.02, 1.05, significantly higher): 0.53
- Average event rigidity, Base, LS Mean Difference of IP2015 − Placebo ([1]; 10 mg, 4 hours postdose): 6.92%
- Average event rigidity, Tip, LS Mean Difference of IP2015 − Placebo ([1]; 10 mg, 4 hours postdose): 10.21%
- Average events of tumescence, Base, LS Mean Difference of IP2015 − Placebo ([1]; 10 mg, 4 hours postdose): 1.05
- Average events of tumescence, Tip, LS Mean Difference of IP2015 − Placebo ([1]; 10 mg, 4 hours postdose): 1.05
- Baseline circumference, Base, LS Mean Difference of IP2015 − Placebo ([1]; 10 mg, 4 hours postdose): −0.28
- Baseline circumference, Tip, LS Mean Difference of IP2015 − Placebo ([1]; 10 mg, 4 hours postdose): −0.21
- Event duration, LS Mean Difference of IP2015 − Placebo ([1]; 10 mg, 4 hours postdose): 8.20 % of session
- RAU, Base, LS Mean Difference of IP2015 − Placebo ([1]; 10 mg, 4 hours postdose): 2.33
- TAU, Tip, LS Mean Difference of IP2015 − Placebo ([1]; 10 mg, 4 hours postdose): 1.42
- Time rigid 80-100%, Base, LS Mean Difference of IP2015 − Placebo ([1]; 10 mg, 4 hours postdose): 0.03
- Total event duration, LS Mean Difference of IP2015 − Placebo ([1]; 10 mg, 4 hours postdose): 0.05 min
- Total events, LS Mean Difference of IP2015 − Placebo ([1]; 10 mg, 4 hours postdose): 0.03
- time rigid 80%-100% at the tip, RAU at the tip and TAU at the base versus placebo ([1]; 10 mg, 4 hours postdose): statistically significant compared to placebo
- patients appearing to respond to treatment (individual RAU and TAU values) ([1]; 10 mg, 4 hours postdose, 12 patients): 3
- Average event rigidity, Base, Mean (SD) [1, 3]: 20.83 (30.61) %
- Average event rigidity, Tip, Mean (SD) [1, 3]: 19.58 (29.42) %
- Average events of tumescence, Base, Mean (SD) [1, 3]: 3.49 (4.35)
- Average events of tumescence, Tip, Mean (SD) [1, 3]: 3.33 (4.16)
- Baseline circumference, Base, Mean (SD) [1, 3]: 7.21 (1.54)
- Baseline circumference, Tip, Mean (SD) [1, 3]: 6.82 (1.16)
- Event duration, Mean (SD) [1, 3]: 17.75 (27.72) % of session
- RAU, Base, Mean (SD) [1, 3]: 3.50 (6.82)
- RAU, Tip, Mean (SD) [1, 3]: 3.25 (6.25)
- TAU, Base, Mean (SD) [1, 3]: 2.83 (4.97)
- TAU, Tip, Mean (SD) [1, 3]: 2.17 (3.59)
- Time rigid 80-100%, Base, Mean (SD) [1, 3]: 0.04 (0.11)
- Time rigid 80-100%, Tip, Mean (SD) [1, 3]: 0.04 (0.10)
- Total event duration, Mean (SD) [1, 3]: 0.09 (0.14) mins
- Total events, Mean (SD) [1, 3]: 0.42 (0.51)
- RAU, Tip, LS Mean Difference of IP2015 − Placebo [1, 4]: 2.54
- TAU, Base, LS Mean Difference of IP2015 − Placebo [1, 4]: 1.95
- Time rigid 80-100%, Tip, LS Mean Difference of IP2015 − Placebo [1, 4]: 0.03
- individual RAU value at the base ([1]; Patient 176, 4 hours postdose): 21
- individual RAU value at the tip ([1]; Patient 176, 4 hours postdose): 19
- individual TAU value at the base ([1]; Patient 176, 4 hours postdose): 14
- individual TAU value at the tip ([1]; Patient 176, 4 hours postdose): 8
- individual RAU value at the base ([1]; Patient 177, 4 hours postdose): 14
- individual RAU value at the tip ([1]; Patient 177, 4 hours postdose): 13
- individual TAU value at the base ([1]; Patient 177, 4 hours postdose): 11
- individual TAU value at the tip ([1]; Patient 177, 4 hours postdose): 9
- individual RAU value at the base ([1]; Patient 191, 4 hours postdose): 4
- individual RAU value at the tip ([1]; Patient 191, 4 hours postdose): 5
- individual TAU value at the base ([1]; Patient 191, 4 hours postdose): 7
- individual TAU value at the tip ([1]; Patient 191, 4 hours postdose): 7
- sperm count, motility, or morphology [2]: did not have negative effects on sperm count, motility, or morphology
